The text below walks through data of patent US4859776A, “(S)-7-(3-aminopyrrolidin-1-yl)-1-(ortho, para-difluorophenyl)-1,4-dihydro-6-fluoro-4-oxo-1,8-naphthyridine-3-carb oxylic acid and method for its preparation” (Abbott Laboratories, priority 1988, dated 1989).

The conditions of test [1]: one enantiomeric form vs the other form; background statement; cited from earlier work.
For another test, the system named is E. Coli Juhl. Description: Mouse protection test, E. Coli Juhl. It is filed as in vivo. To be noted: Escherichia coli. The source says:
(§1) The differences in in vivo antibacterial activity of racemic (R,S) compound (A) versus the (S) enantiomeric form of compound (A) are shown in Table I. |POTENCY OF (A) IN MOUSE PROTECTION TESTS | ED50 (mg/kg/day)

The test system of the next test is S. Aureus NCTC 10649. Description: Mouse protection test, S. Aureus NCTC 10649. It is filed as in vivo. The following applies: Staphylococcus aureus.
Source text: as §1

For a further test, the system named is P. Aeruginosa 5007. In words: Mouse protection test, P. Aeruginosa 5007. The following applies: Pseudomonas aeruginosa. It is filed as in vivo.
Source text: as §1

For test [2] the following is noted: racemic mixture; J. Med. Chem., 29, 2363 (1986); cited from earlier work.

Structures are written as SMILES.

In the case of `CNCC(O)c1ccc(O)c(O)c1` (centres unmarked) [adrenalin], the “activity in raising blood pressure, one enantiomeric form versus the other” value in test [1] is “over ten times more active”.

As to `N[C@H]1CCN(c2nc3c(cc2F)c(=O)c(C(=O)O)cn3-c2ccc(F)cc2F)C1` [(S)--(A), (S)-7-(3-aminopyrrolidin-1-yl)-1-(o,p-difluorophenyl)-1,4-dihydro-6-fluoro-4-oxo-1,8-naphthyridine-3-carboxylic acid], the ED50 (in general, the midpoint of the dose-response relation) in the test on E. Coli Juhl (oral) came out at 0.8 mg/kg; in the test on E. Coli Juhl (sc, subcutaneous) it was 0.2 mg/kg; in the test on S. Aureus NCTC 10649 (NCTC10649, oral) it was 0.8 mg/kg; in the test with S. Aureus NCTC 10649 (NCTC10649, sc, subcutaneous), 0.4 mg/kg; with P. Aeruginosa 5007 (oral), 12.1 mg/kg; in the test on P. Aeruginosa 5007 (sc, subcutaneous) it was 8.6 mg/kg.

Turning to `NC1CCN(c2nc3c(cc2F)c(=O)c(C(=O)O)cn3-c2ccc(F)cc2F)C1` (racemic) [(R,S)--(A), 7-(3-aminopyrrolidin-1-yl)-1-(o,p-difluorophenyl)-1,4-dihydro-6-fluoro-4-oxo-1,8-naphthyridine-3-carboxylic acid], the ED50 is 1.2 mg/kg in the test on E. Coli Juhl (oral); 0.3 mg/kg with E. Coli Juhl (sc, subcutaneous); 1 mg/kg with S. Aureus NCTC 10649 (NCTC10649, oral); 0.4 mg/kg with S. Aureus NCTC 10649 (NCTC10649, sc, subcutaneous); 16 mg/kg in the test on P. Aeruginosa 5007 (oral); more than 20 mg/kg with P. Aeruginosa 5007 (sc, subcutaneous). Also, the antibacterial properties entry in test [2] is recorded as “has been shown to exhibit antibacterial properties”.
